Data from patent publication US4410516A, “1-N(αHydroxy-ω-aminoalkanoyl) derivatives of 5,3',4'-trideoxy- or 5,3', 4'-trideoxy-6'-N- methyl- or 5, 3', 4',6"-tetradeoxykannamyci B and production thereof” (Zaidan Hojin Biseibutsu Kagaku Kenkyu Kai, priority 1981, dated 1983).
In brackets after ≈: the same amount, converted by molar mass. Read-outs that look alike come from different tables or passages of the source.

Key:
Type in all cases: cell-based
[1] = system: Pseudomonas aeruginosa PST1; experiment: Minimum inhibitory concentration, serial dilution on nutrient agar; settings: PST1, nutrient agar, 37° C., 18 hours incubation, read-out: MIC
Escherichia coli W677 = experiment: as above
[2] = system: Bacillus subtilis PCI 219; experiment: as above; settings: PCI219, 37° C., 18 hours incubation
[3] = system: Mycobacterium smegmatis ATCC 607; experiment: as above; settings: Mycolicibacterium smegmatis, ATCC607; nutrient agar, 37° C., 18 hours incubation; read-out: MIC
Bacillus anthracis = experiment: microbe, parasite or virus in culture; settings: 18 h
Sarcina lutea PCI 1001 = experiment: Minimum inhibitory concentration, serial dilution on nutrient agar; settings: Micrococcus luteus, PCI1001; nutrient agar, 37° C., 18 hours incubation; read-out: MIC
[4] = system: Pseudomonas maltophilia GN907; experiment: as above; settings: Stenotrophomonas maltophilia, 37° C., 18 hours incubation
[5] = system: Micrococcus flavus FDA 16; experiment: as above
[6] = system: Bacillus cereus ATCC 10702; experiment: as above; settings: ATCC10702, nutrient agar, 37° C., 18 hours incubation, read-out: MIC
Escherichia coli JR255 = experiment: as above
[7] = system: Pseudomonas aeruginosa No. 12; experiment: as above
Serratia marcescens = experiment: as above; settings: 37° C., 18 hours incubation
[8] = system: Escherichia coli K-12 ML 1629; experiment: as above
[9] = system: Staphylococcus aureus AP01; experiment: as above; settings: 37° C., 18 hours incubation
[10] = system: Klebsiella pneumoniae 22 #3038; experiment: as above; settings: 18 h
[11] = system: Escherichia coli K-12 ML 1630; experiment: as above; settings: K12ML1630, 37° C., 18 hours incubation
Excerpt: (§1) The minimum inhibitory concentration (mcg/ml) of 1-N-[(S)-4-amino-2-hydroxybutyryl]-5,3',4'-trideoxykanamycin B (abbreviated as AHB-trideoxyKMB), 1-N-[(RS)-3-amino-2-hydroxypropionyl]-5,3',4'-trideoxykanamycin B (abbreviated as AHP-trideoxy-KMB) and 1-N-[(S)-4-amino-2-hydroxybutyryl]-5,3',4',6"-tetradeoxykanamycin B (abbreviated as AHB-tetradeoxyKMB) of the formula (II) according to this invention as well as of the new compound 5,3',4',6"-tetradeoxykanamycin B (abbreviated as tetradeoxyKMB) of the formula (III) according to this invention against various microorganisms were determined according to serial dilution method on a nutrient agar medium at 37° C., the estimation being made after 18 hours incubation. For comparison purpose, the minimum inhibitory concentrations of habekacin were also determined in the same manner as stated above.
(§2) The minimum inhibitory concentrations (mcg/ml) of 1-N-[(S)-4-amino-2-hydroxybutyryl]-5,3',4'-trideoxy-6'-N-methylkanamycin B (abbreviated as AHB-trideoxyMKMB), 1-N-[(RS)-3-amino-2-hydroxypropionyl]-5,3',4'-trideoxy-6'-N-methylkanamycin B (abbreviated as AHP-trideoxyMKMB) and 1-N-[(S)-5-amino-2-hydroxyvaleryl]-5,3',4'-trideoxy-6'-N-methylkanamycin B (abbreviated as AHV-trideoxyMKMB) of the formula (IV) according to this invention as well as of the new compound 5,3',4'-trideoxy-6'-N-methylkanamycin B (abbreviated as trideoxyMKMB) of the formula (V) according to this invention against various microorganisms were determined according to serial dilution method on a nutrient agar medium at 37° C., the estimation being made after 18 hours incubation. For comparison purpose, the minimum inhibitory concentrations of 1-N-[(S)-4-amino-2-hydroxybutyryl]-3',4'-dideoxykanamycin B (ie. habekacin) were also determined in the same manner as stated above.

[12] = system: Shigella flexneri 4b JS11811; experiment: as above; settings: 4BJS11811, 37° C., 18 hours incubation
Excerpt: as §1, §2

[13] = system: Escherichia coli K-12 C 600R/35; experiment: as above; settings: K12C600R/35, 37° C., 18 hours incubation
Excerpt: as §1, §2

Shigella sonnei JS11746 = experiment: as above; settings: 37° C., 18 hours incubation
Excerpt: as §1, §2

[14] = system: Escherichia coli K-12 J5R 11-2; experiment: as above; settings: K12J5R112, 37° C., 18 hours incubation
Excerpt: as §1, §2

[15] = system: Pseudomonas aeruginosa TI-13; experiment: as above; settings: TI13, 18 h
Escherichia coli K-12 = experiment: as above
[16] = system: Escherichia coli JR66/W677; experiment: as above; settings: JR66/W677, 18 h
[17] = system: Escherichia coli K-12 R 388; experiment: as above; settings: K12R388, 18 h
[18] = system: Pseudomonas aeruginosa H11; experiment: as above; settings: H11, nutrient agar, 37° C., 18 hours incubation, read-out: MIC
Escherichia coli NIHJ = experiment: as above
[19] = system: Salmonella enteritidis 1891; experiment: as above; settings: Salmonella enterica, 18 h
[20] = system: Escherichia coli K-12 LA 290 R55; experiment: as above; settings: K12LA290R55, 18 h
[21] = system: Pseudomonas aeruginosa 99; experiment: as above; settings: Pseudomonas aeruginosa, 99; nutrient agar, 37° C., 18 hours incubation; read-out: MIC

SMILES: CNC[C@@H]1CC[C@@H](N)[C@@H](O[C@H]2C[C@@H](O[C@H]3O[C@H](CO)[C@@H](O)[C@H](N)[C@H]3O)[C@H](NC(=O)C(O)CN)C[C@@H]2N)O1 (stereo partly drawn) [AHP-trideoxyMKMB, 1-N-[(RS)-3-amino-2-hydroxypropionyl]-5,3',4'-trideoxy-6'-N-methylkanamycin B]
- MIC [1]: 25 µg/mL (≈ 46.6 µM)
- MIC (Escherichia coli W677; W677, 18 h): 3.13 µg/mL (≈ 5.83 µM)
- MIC [2]: 0.39 µg/mL (≈ 0.727 µM)
- MIC [3]: 0.39 µg/mL (≈ 0.727 µM)
- MIC (Bacillus anthracis): < 0.2 µg/mL
- MIC (Sarcina lutea PCI 1001): 0.78 µg/mL (≈ 1.45 µM)
- MIC [4]: > 100 µg/mL
- MIC ([5]; FDA16, 18 h): 3.13 µg/mL (≈ 5.83 µM)
- MIC [6]: 1.56 µg/mL (≈ 2.91 µM)
- MIC (Escherichia coli JR255; JR255, 18 h): 3.13 µg/mL (≈ 5.83 µM)
- MIC ([7]; NO.12, 18 h): 3.13 µg/mL (≈ 5.83 µM)
- MIC (Serratia marcescens): 12.5 µg/mL (≈ 23.3 µM)
- MIC ([8]; K12ML1629, 18 h): 3.13 µg/mL (≈ 5.83 µM)
- MIC [9]: < 0.2 µg/mL
- MIC [10]: 3.13 µg/mL (≈ 5.83 µM)
- MIC [11]: 3.13 µg/mL (≈ 5.83 µM)
- MIC [12]: 3.13 µg/mL (≈ 5.83 µM)
- MIC [13]: 1.56 µg/mL (≈ 2.91 µM)
- MIC (Shigella sonnei JS11746): 6.25 µg/mL (≈ 11.6 µM)
- MIC [14]: 3.13 µg/mL (≈ 5.83 µM)
- MIC [15]: 3.13 µg/mL (≈ 5.83 µM)
- MIC (Escherichia coli K-12; K12, 18 h): 3.13 µg/mL (≈ 5.83 µM)
- MIC [16]: 6.25 µg/mL (≈ 11.6 µM)
- MIC [17]: 1.56 µg/mL (≈ 2.91 µM)
- MIC [18]: 12.5 µg/mL (≈ 23.3 µM)
- MIC (Escherichia coli NIHJ; 18 h): 3.13 µg/mL (≈ 5.83 µM)
- MIC [19]: 6.25 µg/mL (≈ 11.6 µM)
- MIC [20]: 6.25 µg/mL (≈ 11.6 µM)
- MIC [21]: 12.5 µg/mL (≈ 23.3 µM)

SMILES: C[C@H]1O[C@H](O[C@@H]2C[C@H](O[C@H]3O[C@H](CN)CC[C@H]3N)[C@@H](N)C[C@H]2NC(=O)[C@@H](O)CCN)[C@H](O)[C@@H](N)[C@@H]1O [AHB-tetradeoxyKMB, 1-N-[(S)-4-amino-2-hydroxybutyryl]-5,3',4',6"-tetradeoxykanamycin B]
- MIC [1]: 6.25 µg/mL (≈ 12 µM)
- MIC (Escherichia coli W677; W677, nutrient agar, 37° C., 18 hours incubation, read-out: MIC): 0.78 µg/mL (≈ 1.5 µM)
- MIC [2]: < 0.2 µg/mL
- MIC [3]: < 0.2 µg/mL
- MIC (Bacillus anthracis): < 0.2 µg/mL
- MIC (Sarcina lutea PCI 1001): 0.78 µg/mL (≈ 1.5 µM)
- MIC [4]: > 100 µg/mL
- MIC ([5]; FDA16, nutrient agar, 37° C., 18 hours incubation, read-out: MIC): 6.25 µg/mL (≈ 12 µM)
- MIC [6]: 0.39 µg/mL (≈ 0.749 µM)
- MIC (Escherichia coli JR255; JR255, nutrient agar, 37° C., 18 hours incubation, read-out: MIC): 0.78 µg/mL (≈ 1.5 µM)
- MIC ([7]; NO.12, nutrient agar, 37° C., 18 hours incubation, read-out: MIC): 6.25 µg/mL (≈ 12 µM)
- MIC (Serratia marcescens): 25 µg/mL (≈ 48 µM)
- MIC ([8]; K12ML1629, nutrient agar, 37° C., 18 hours incubation, read-out: MIC): 0.78 µg/mL (≈ 1.5 µM)
- MIC [9]: 0.78 µg/mL (≈ 1.5 µM)
- MIC [10]: 1.56 µg/mL (≈ 3 µM)
- MIC [11]: 1.56 µg/mL (≈ 3 µM)
- MIC [12]: 1.56 µg/mL (≈ 3 µM)
- MIC [13]: 0.78 µg/mL (≈ 1.5 µM)
- MIC (Shigella sonnei JS11746): 3.13 µg/mL (≈ 6.01 µM)
- MIC [14]: 0.78 µg/mL (≈ 1.5 µM)
- MIC [15]: 3.13 µg/mL (≈ 6.01 µM)
- MIC (Escherichia coli K-12; K12, nutrient agar, 37° C., 18 hours incubation, read-out: MIC): 0.78 µg/mL (≈ 1.5 µM)
- MIC [16]: 1.56 µg/mL (≈ 3 µM)
- MIC [17]: 0.39 µg/mL (≈ 0.749 µM)
- MIC [18]: 12.5 µg/mL (≈ 24 µM)
- MIC (Escherichia coli NIHJ; nutrient agar, 37° C., 18 hours incubation, read-out: MIC): 0.78 µg/mL (≈ 1.5 µM)
- MIC [19]: 3.13 µg/mL (≈ 6.01 µM)
- MIC [20]: 1.56 µg/mL (≈ 3 µM)
- MIC [21]: 6.25 µg/mL (≈ 12 µM)
